Values of other authors as cited in patent US20130089611A1, “RASAGILINE CITRAMIDE” (TEVA PHARMACEUTICAL INDUSTRIES, LTD., priority 2011, published 2013).

Conditions: in vivo

Question: For C#CCN[C@@H]1CCc2ccccc21 [rasagiline, R(+)-N-propargyl-1-aminoindan], which absolute bioavailability is on record?
Answer: about 36%
